Experimental data taken from patent US20120060834A1, “PHARMACEUTICAL PREPARATION TO BE ADMINISTERED INTO RESPIRATORY ORGANS FOR TREATING OR PREVENTING INFLAMMATORY RESPIRATORY DISEASES, AND METHOD FOR TREATING OR PREVENTING SUCH DISEASES” (Postech Academy-Industry Foundation, priority 2009, published 2012).

Legend:
[1] = system: asthma animal model exhibiting TH1+TH17 immune responses; assay: Therapeutic efficacy of WKYMVm upon systemic administration by intraperitoneal injection in asthma mouse model; format: in vivo, BALB/c mice
Experimental: This sensitization was performed on Day 0, 1, 2 and 7. […] Meanwhile, the mice of the positive control were intraperitoneally administered with the same dose of phosphate-buffered saline (PBS). For a negative control, the sensitization on Day 0, 1, 2 and 7 and the challenge on Day 14, 15, 21, and 22 were conducted in the same manner as in the positive control, except that PBS was used instead of the allergen. […]
(§1) Pulmonary inflammation was examined 6 hours (Day 22) and 48 hours (Day 24) after the final administration of the allergen. On Days 22 and 24, after mice were anesthetized by intraperitoneally injecting a mixture of ketamine and xylazine thereto, they were subjected to thoracotomy to expose the trachea into which a catheter was then inserted. After suturing the mice, 1 mL of germ-free PBS was infused twice to wash the airway to give bronchoalveolar lavage fluid (hereinafter referred to as “'BAL fluid”). For analyzing T-lymphocytes in lung tissues, the lung was excised and cells were extracted from local lymph nodes.
(§2) Following centrifugation of the BAL fluid at 3000 rpm and at 4° C. for 10 min, the cell pellet thus formed was suspended in PBS, and rolled on slide using a cytospin and stained with Diff
(§3) Quick. More than 300 inflammatory cells were observed under an optical microscope with […] magnification to determine cell counts by cell types, that is, macrophage, lymphocyte, neutrophil, and eosinophil. In the BAL fluid, the cytokines involved in Th1-mediated inflammation, such as gamma interferon, interferon-g-inducible protein 10 (IP-10), and IL-12, the cytokines involved in Th2-mediated inflammation, such as interleukin IL-4 and IL-13, the cytokines involved in Th17-mediated inflammation, such as IL-17, TNF-α and IL-6, and the cytokines involved in Th2- and Th17-mediated inflammation, such as TGF-13, were quantified using ELISA.
(§4) The excised pulmonary tissue was treated with collagenase type IV (Sigma) to separate cells therefrom. The cells were surface stained with anti-CD3, anti-CD4, and anti-CD8 antibodies (BD Pharmingen), all being conjugated with a fluorescent and the membrane was perforated with Triton, followed by intracellular cytokine staining with anti-IFN-γ, anti-IL-17, anti-IL-10 and anti-IL-4 antibodies. Types of the T lymphocytes introduced into the lung were analyzed using the fluorescence activated cell scanner FACSCalibur (Becton Dickinson).
(§5) After the cells extracted from the lymph nodes were incubated for 72 hours in PBS containing 100 μg/ml OVA, gamma interferon, IL-17 and IL-4, which are the cytokines involved in Th1-, Th17- and Th2-mediated inflammation, were quantified using ELISA.

[2] = system: asthma animal model exhibiting TH1+TH17 immune responses; assay: Therapeutic efficacy of WKYMVm upon intranasal administration in asthma mouse model; format: in vivo, BALB/c mice
Experimental: This sensitization was performed on Day 0, 1, 2 and 7. […] Meanwhile, the mice of the positive control were intraperitoneally administered with the same dose of phosphate-buffered saline (PBS). For a negative control, the sensitization on Day 0, 1, 2 and 7 and the challenge on Day 14, 15, 21, and 22 were conducted in the same manner as in the positive control, except that PBS was used instead of the allergen.
Twenty four hours after the final administration of the allergen (Day 23), the mice were examined for bronchial hypersensitivity to methacholine. In this context, the mice were placed in a chamber and allowed to inhale PBS for 3 min with the aid of a nebulizer, followed by measuring penh (enhanced pause) values for 3 min by means of non-invasive whole body plethysmography (Allmedicus, Korea). Likewise, the mice were allowed to inhale 6.25, 12.5, 25 and 50 mg/ml methacholine PBS sequentially, after which penh values for each concentration were measured. A mean of the penh values measured for 3 min was used as an index of airway obstruction.
as §1, §2, §3, §4, §5
The assay was performed in the same manner as in the Comparative Example, except that WKYMVm was administered intranasally instead of intraperitoneally. […] The other procedure was performed in the same manner as in the Comparative Example.

[3] = target: T1, FPR (formyl peptide receptor) (Homo sapiens, UniProt P21462); settings: cited from earlier work
T1 sequence (P21462 1-350): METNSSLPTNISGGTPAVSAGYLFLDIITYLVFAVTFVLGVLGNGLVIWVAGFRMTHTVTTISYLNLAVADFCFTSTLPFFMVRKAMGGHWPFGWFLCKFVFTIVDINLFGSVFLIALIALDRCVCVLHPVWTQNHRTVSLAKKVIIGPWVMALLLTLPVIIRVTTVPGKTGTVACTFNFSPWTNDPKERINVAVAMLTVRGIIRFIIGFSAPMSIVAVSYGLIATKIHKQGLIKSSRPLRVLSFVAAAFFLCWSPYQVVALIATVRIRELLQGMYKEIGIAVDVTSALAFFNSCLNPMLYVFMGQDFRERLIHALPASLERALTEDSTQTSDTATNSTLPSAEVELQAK

With “Trp-Lys-Tyr-Met-Val-D-Met-CONH2 [WKYMVm]” the “inflammatory cell count in BAL fluid” value ([1]; i.p. 4 mg/kg, Day 22, 6 hours after final allergen, vs sham (positive control), FIG. 2) was “increase”, the “release of gamma interferon by inflammatory cells separated from pulmonary tissue” value ([1]; i.p. 4 mg/kg, Day 22, FIG. 3a) was “increased” and the “level of IP-10 in BAL fluid” value ([1]; i.p. 4 mg/kg, Day 22, FIG. 3b) was “increased levels”. For the same substance, the “level of IL-12p40 in BAL fluid” value ([1]; i.p. 4 mg/kg, Day 22, FIG. 3c) was “increased levels”, the “number of IL-17-expressing CD4+ T cells from pulmonary tissues” value ([1]; i.p. 4 mg/kg, Day 22, FIG. 4a) was “increase in number” and the “level of IL-17 released to BAL fluid” value ([1]; i.p. 4 mg/kg, Day 22, FIG. 4b) was “increase”. For the same substance, the “level of IL-6 in BAL fluid” value ([1]; i.p. 4 mg/kg, Day 22, FIG. 5a) was “increased levels”, the “level of TNF-α in BAL fluid” value ([1]; i.p. 4 mg/kg, Day 22, FIG. 5b) was “increased levels” and the “inflammatory cell count in BAL” value ([1]; i.p. 4 mg/kg, Day 24, 48 hours after final allergen, vs sham, FIG. 6) was “there was a difference”. The “level of IL-12p40 (ELISA)” value ([1]; i.p. 4 mg/kg, Day 24, vs sham, FIG. 7a) was “no significant differences”, the “level of TGF-β (ELISA)” value ([1]; i.p. 4 mg/kg, Day 24, vs sham, FIG. 7b) was “no significant differences” and the “pulmonary/respiratory inflammation (overall conclusion)” value ([1]; systemic (intraperitoneal) administration) was “did not ameliorate”. The “suppressive effects on bronchial hypersensitivity and pulmonary inflammation” value ([2]; direct administration via the nasal cavity compared with systemic administration) was “higher suppressive effects”, the “inflammatory cell count of BAL fluid” value ([2]; intranasal 200 μg/kg, Day 22, 6 hours after allergen, vs sham (positive control), FIG. 8) was “no differences” and the “release of gamma interferon by immune cells separated from local lymph nodes (in vitro)” value ([2]; intranasal 200 μg/kg, Day 22, vs positive control, FIG. 9a) was “higher level”. For the same substance, the “gamma interferon-expressing CD4+ T cells from pulmonary tissue (count)” value ([2]; intranasal 200 μg/kg, Day 22, vs positive control, FIG. 9b) was “higher”, the “level of gamma interferon in BAL fluid” value ([2]; intranasal 200 μg/kg, Day 22, vs positive control, FIG. 9c) was “reduced” and the “IL-17 released by local lymph node immune cells stimulated in vitro with allergen” value ([2]; intranasal 200 μg/kg, Day 22, vs positive control, FIG. 10) was “higher amount”. The “IL-17-expressing CD4+ T cells from pulmonary tissues (count)” value ([2]; intranasal 200 μg/kg, Day 22, vs positive control, FIG. 10b) was “more numerous”, the “level of IL-17 in BAL fluid” value ([2]; intranasal 200 μg/kg, Day 22, vs positive control, FIG. 10c) was “reduced” and the “expression of Th2 cytokines in T cells of pulmonary tissues” value ([2]; intranasal 200 μg/kg, Day 22, vs positive control, FIG. 11a) was “reduced”. The “expression level of IL-10 in T cells of pulmonary tissues” value ([2]; intranasal 200 μg/kg, Day 22, vs positive control, FIG. 11b) was “increased”, the “release of IP-10 in BAL fluid” value ([2]; intranasal 200 μg/kg, Day 22, vs positive control, FIG. 12a) was “reduced” and the “release of IL-12p40 in BAL fluid” value ([2]; intranasal 200 μg/kg, Day 22, vs positive control, FIG. 12b) was “reduced”. The “release of TNF-α in BAL fluid” value ([2]; intranasal 200 μg/kg, Day 22, vs positive control, FIG. 12c) was “lower levels”, the “level of MCP-1 in BAL fluid” value ([2]; intranasal 200 μg/kg, Day 22, vs positive control, FIG. 12e) was “lower levels” and the “level of MIP-1a in BAL fluid” value ([2]; intranasal 200 μg/kg, Day 22, vs positive control, FIG. 12f) was “lower levels”. For the same substance, the “release of IL-1β in BAL fluid” value ([2]; intranasal 200 μg/kg, Day 22, vs positive control, FIG. 12d) was “lower levels”, the “release of IL-17 into BAL fluid” value ([2]; intranasal 200 μg/kg, Day 24, vs positive control, FIG. 15) was “increased” and the “release of TGF-β from inflammatory cells (BAL fluid)” value ([2]; intranasal 200 μg/kg, Day 24, vs positive control, FIG. 15b) was “significantly reduced”. The “level of IL-12p40 in BAL fluid” value ([2]; intranasal 200 μg/kg, Day 24, vs positive control, FIG. 16a) was “higher levels”, the “level of IP-10 in BAL fluid” value ([2]; intranasal 200 μg/kg, Day 24, vs positive control, FIG. 16b) was “higher levels” and the “binding to FPR” value [3] was “known to bind”.
